Data from BindingDB's records for patent US20250221987 (Acerand Therapeutics (Hong Kong), 2025).

What was measured:
[1] = target: Poly [ADP-ribose] polymerase 1 (Homo sapiens, UniProt P09874); assay: PARP1 Enzymatic Activity Assay
Protocol: 2) After the coating was completed, the coating buffer was discarded. […] After washing, the blocking buffer was discarded. […] 4) 1000× compound was prepared. 1 μL of compound was transferred to a 96-well plate containing 199 μL of reaction buffer (50 mM Tris-HCl (pH 7.5), 0.005% Tween-20, 0.01% BSA) and mixed well. […] 5) 25/10×PARP1-DNA solution was prepared with reaction buffer. […] 6) 25/10×NAD+ solution was prepared with reaction buffer. […] 8) Primary antibody was 2000-fold diluted with the blocking buffer. 20 μL of primary antibody was added to the reaction plate, which was incubated at room temperature for 1.5 hours. 9) The primary antibody was discarded. […] 10) Secondary antibody was 2000-fold diluted with the blocking buffer. […] 11) The secondary antibody was discarded. […] The chemiluminescence value RLU was read with Envision.

[2] = target: Poly [ADP-ribose] polymerase 2 (Homo sapiens, UniProt Q9UGN5); assay: PARP2 Enzymatic Activity Assay
Protocol: 2) After the coating was completed, the coating buffer was discarded. […] 6) 2000× compound was prepared. […] 10) The Stre-HRP solution was discarded.

Poly [ADP-ribose] polymerase 2, sequence (Q9UGN5 whole entry): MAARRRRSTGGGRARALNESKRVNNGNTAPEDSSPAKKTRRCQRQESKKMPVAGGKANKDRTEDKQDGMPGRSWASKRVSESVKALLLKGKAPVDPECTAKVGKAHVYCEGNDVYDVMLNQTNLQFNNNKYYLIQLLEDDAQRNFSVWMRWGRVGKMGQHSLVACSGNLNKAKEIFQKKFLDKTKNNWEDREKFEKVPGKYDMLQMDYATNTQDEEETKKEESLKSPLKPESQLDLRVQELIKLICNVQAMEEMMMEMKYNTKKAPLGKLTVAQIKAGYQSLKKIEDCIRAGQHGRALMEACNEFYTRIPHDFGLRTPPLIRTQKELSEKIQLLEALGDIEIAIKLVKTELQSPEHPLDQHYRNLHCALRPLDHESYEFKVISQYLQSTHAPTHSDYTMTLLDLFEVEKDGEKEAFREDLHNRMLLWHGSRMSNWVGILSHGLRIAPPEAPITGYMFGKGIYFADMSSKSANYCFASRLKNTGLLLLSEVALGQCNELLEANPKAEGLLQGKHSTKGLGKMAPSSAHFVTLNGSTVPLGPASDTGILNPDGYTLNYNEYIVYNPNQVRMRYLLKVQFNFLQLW
Poly [ADP-ribose] polymerase 1, sequence (P09874 whole entry): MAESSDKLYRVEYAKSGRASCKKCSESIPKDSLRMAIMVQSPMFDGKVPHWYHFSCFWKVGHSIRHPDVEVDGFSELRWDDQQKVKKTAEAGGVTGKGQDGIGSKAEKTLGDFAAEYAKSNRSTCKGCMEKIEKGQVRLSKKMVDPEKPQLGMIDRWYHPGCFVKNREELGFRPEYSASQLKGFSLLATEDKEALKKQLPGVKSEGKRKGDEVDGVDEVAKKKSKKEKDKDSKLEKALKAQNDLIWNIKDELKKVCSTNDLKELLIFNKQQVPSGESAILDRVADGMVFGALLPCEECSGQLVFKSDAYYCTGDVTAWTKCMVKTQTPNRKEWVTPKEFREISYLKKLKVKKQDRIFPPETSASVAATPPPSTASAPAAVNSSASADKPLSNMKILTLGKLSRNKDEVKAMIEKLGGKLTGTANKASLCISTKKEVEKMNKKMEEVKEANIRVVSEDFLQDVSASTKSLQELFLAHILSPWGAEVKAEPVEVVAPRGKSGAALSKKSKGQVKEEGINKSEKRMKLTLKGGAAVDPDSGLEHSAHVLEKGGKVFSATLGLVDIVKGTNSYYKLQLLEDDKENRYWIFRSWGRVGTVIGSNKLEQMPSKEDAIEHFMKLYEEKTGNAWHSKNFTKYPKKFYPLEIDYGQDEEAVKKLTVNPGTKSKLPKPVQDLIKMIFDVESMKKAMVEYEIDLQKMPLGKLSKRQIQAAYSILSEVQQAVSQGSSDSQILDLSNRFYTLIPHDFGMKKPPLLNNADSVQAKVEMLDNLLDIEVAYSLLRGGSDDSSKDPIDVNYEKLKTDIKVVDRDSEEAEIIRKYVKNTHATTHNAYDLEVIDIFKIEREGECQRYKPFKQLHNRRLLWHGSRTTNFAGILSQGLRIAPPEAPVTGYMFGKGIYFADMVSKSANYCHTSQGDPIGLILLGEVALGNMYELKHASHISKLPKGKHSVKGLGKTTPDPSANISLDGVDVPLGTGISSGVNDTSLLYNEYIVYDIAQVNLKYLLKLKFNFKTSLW

| Structure (SMILES) | IC50 [1] [nM] | IC50 [2] [nM] |
| --- | --- | --- |
| CCc1cc2ncc(CN3CCN(c4ccc(C(=O)NC)nc4)[C@H]4C[C@H]43)cc2[nH]c1=O [US20250221987, Example 1-1] | 0.9 | – |
| CCc1cc2ncc(CN3CCN(c4ccc(C(=O)NC)nc4)[C@@H]4C[C@@H]43)cc2[nH]c1=O [US20250221987, Example 1-2] | 0.7 | – |
| CCc1cc2ncc(CN3CCN(c4ccc(C(=O)NC)nc4)C4CC43)cc2[nH]c1=O (stereo unspecified) [US20250221987, Example 1] | 1.1 | – |
| CCc1cc2ncc(CN3CCN(c4ccc(C(=O)NC)nc4)[C@@H]4CC[C@H]43)cc2[nH]c1=O [US20250221987, Example 2-3] | 1.5 | 72 |
| CCc1cc2ncc(CN3CCN(c4ccc(C(=O)NC)nc4)[C@H]4CC[C@@H]43)cc2[nH]c1=O [US20250221987, Example 2-4] | 1 | 40 |

Other lines, results leading:

| IC50 [1] [nM] | IC50 [2] [nM] | Structure (SMILES) |
| --- | --- | --- |
| 0.9 | 14 | CCc1cc2ncc(CN3CCN(c4ccc(C(=O)NC)nc4)C4CCC43)cc2[nH]c1=O (stereo unspecified) [US20250221987, Example 2] |
| 6.6 | > 300 | CNC(=O)c1ccc(N2CCN(Cc3cnc4cc(OC)c(=O)[nH]c4c3)[C@H]3CC[C@H]32)cn1 [US20250221987, Example 33-1] |
